Patent US20080207573A1, “COMPOUNDS FOR TREATING VIRAL INFECTIONS” (priority 2006, published 2008)

Tested on: HIV-1 laboratory strain, NL4-3
Test: MT-4 Cytoprotection Assay (protection from HIV-induced cytopathic effect, WST-1 readout)
Format: cell-based
Conditions: Human immunodeficiency virus 1, NL43; list of representative compounds; read-out: EC50 of less than about 100 nm (representative compounds)
Description: MT-4 Cytoprotection Assay
The HTLV-1 transformed T cell line, MT-4, is highly susceptible to HIV-1 infection. Anti-HIV-1 agents were evaluated in this target cell line by protection from the HIV-induced cytopathic effect. In this assay, viability of both HIV-1 and mock-infected cells was assessed in a […] assay that monitors the ability of metabolically-active cells to reduce the tetrazolium salt WST-1. Cytoprotection by antiviral compounds is indicated by the positive readout of increased WST-1 cleavage.
Briefly, exponentially growing MT-4 cells were mock-infected or batch-infected with the HIV-1 laboratory strain, NL4-3, at a multiplicity of infection of 0.0005. Following a two hour infection, the cells were washed to remove unbound virus and plated in the presence of increasing concentrations of compound. After four days incubation, cytoprotection in the infected cells and compound toxicity in mock-infected cells were analyzed using the WST-1 assay.

SMILES | EC50 [nM]
C=C(C)[C@@H]1CC[C@]2(C(=O)NCc3ccc(OC)cc3)CC[C@]3(C)[C@H](CC[C@@H]4[C@@]5(C)CC[C@H](OC(=O)CC(C)(C)C(=O)O)C(C)(C)[C@@H]5CC[C@]43C)[C@@H]12 [Compound 69] | < 100
C=C(C)[C@@H]1CC[C@]2(C(=O)NCc3ccco3)CC[C@]3(C)[C@H](CC[C@@H]4[C@@]5(C)CC[C@H](OC(=O)CC(C)(C)C(=O)O)C(C)(C)[C@@H]5CC[C@]43C)[C@@H]12 [Compound 74] | < 100
C=C(C)[C@@H]1CC[C@]2(C(=O)NCc3ccncc3)CC[C@]3(C)[C@H](CC[C@@H]4[C@@]5(C)CC[C@H](OC(=O)CC(C)(C)C(=O)O)C(C)(C)[C@@H]5CC[C@]43C)[C@@H]12 [Compound 75] | < 100
C=C(C)[C@@H]1CC[C@]2(C(=O)Nc3ccc(OC)cc3)CC[C@]3(C)[C@H](CC[C@@H]4[C@@]5(C)CC[C@H](OC(=O)CC(C)(C)C(=O)O)C(C)(C)[C@@H]5CC[C@]43C)[C@@H]12 [Compound 77] | < 100
C=C(C)[C@@H]1CC[C@]2(C(=O)NCc3ccccc3OC)CC[C@]3(C)[C@H](CC[C@@H]4[C@@]5(C)CC[C@H](OC(=O)CC(C)(C)C(=O)O)C(C)(C)[C@@H]5CC[C@]43C)[C@@H]12 [Compound 78] | < 100
C=C(C)[C@@H]1CC[C@]2(C(=O)NCc3cccc(OC)c3)CC[C@]3(C)[C@H](CC[C@@H]4[C@@]5(C)CC[C@H](OC(=O)CC(C)(C)C(=O)O)C(C)(C)[C@@H]5CC[C@]43C)[C@@H]12 [Compound 79] | < 100
C=C(C)[C@@H]1CC[C@]2(C(=O)NCc3ccc(Cl)cc3)CC[C@]3(C)[C@H](CC[C@@H]4[C@@]5(C)CC[C@H](OC(=O)CC(C)(C)C(=O)O)C(C)(C)[C@@H]5CC[C@]43C)[C@@H]12 [Compound 80] | < 100
C=C(C)[C@@H]1CC[C@]2(C(=O)N[C@H](C)c3ccc(OC)cc3)CC[C@]3(C)[C@H](CC[C@@H]4[C@@]5(C)CC[C@H](OC(=O)CC(C)(C)C(=O)O)C(C)(C)[C@@H]5CC[C@]43C)[C@@H]12 [Compound 81] | < 100
C=C(C)[C@@H]1CC[C@]2(C(=O)NCc3ccc4c(c3)OCO4)CC[C@]3(C)[C@H](CC[C@@H]4[C@@]5(C)CC[C@H](OC(=O)CC(C)(C)C(=O)O)C(C)(C)[C@@H]5CC[C@]43C)[C@@H]12 [Compound 82] | < 100
C=C(C)[C@@H]1CC[C@]2(C(=O)NCc3ccc4c(c3)OCCO4)CC[C@]3(C)[C@H](CC[C@@H]4[C@@]5(C)CC[C@H](OC(=O)CC(C)(C)C(=O)O)C(C)(C)[C@@H]5CC[C@]43C)[C@@H]12 [Compound 84] | < 100
C=C(C)[C@@H]1CC[C@]2(C(=O)NCc3ccc4occc4c3)CC[C@]3(C)[C@H](CC[C@@H]4[C@@]5(C)CC[C@H](OC(=O)CC(C)(C)C(=O)O)C(C)(C)[C@@H]5CC[C@]43C)[C@@H]12 [Compound 87] | < 100
C=C(C)[C@@H]1CC[C@]2(C(=O)NCCc3cccc(OC)c3)CC[C@]3(C)[C@H](CC[C@@H]4[C@@]5(C)CC[C@H](OC(=O)CC(C)(C)C(=O)O)C(C)(C)[C@@H]5CC[C@]43C)[C@@H]12 [Compound 88] | < 100
C=C(C)[C@@H]1CC[C@]2(C(=O)NCCc3ccncc3)CC[C@]3(C)[C@H](CC[C@@H]4[C@@]5(C)CC[C@H](OC(=O)CC(C)(C)C(=O)O)C(C)(C)[C@@H]5CC[C@]43C)[C@@H]12 [Compound 91] | < 100
C=C(C)[C@@H]1CC[C@]2(C(=O)NCCc3ccccn3)CC[C@]3(C)[C@H](CC[C@@H]4[C@@]5(C)CC[C@H](OC(=O)CC(C)(C)C(=O)O)C(C)(C)[C@@H]5CC[C@]43C)[C@@H]12 [Compound 92] | < 100
C=C(C)[C@@H]1CC[C@]2(C(=O)NCCc3cccnc3)CC[C@]3(C)[C@H](CC[C@@H]4[C@@]5(C)CC[C@H](OC(=O)CC(C)(C)C(=O)O)C(C)(C)[C@@H]5CC[C@]43C)[C@@H]12 [Compound 93] | < 100
C=C(C)[C@@H]1CC[C@]2(C(=O)NCc3cccc4ccccc34)CC[C@]3(C)[C@H](CC[C@@H]4[C@@]5(C)CC[C@H](OC(=O)CC(C)(C)C(=O)O)C(C)(C)[C@@H]5CC[C@]43C)[C@@H]12 [Compound 94] | < 100
C=C(C)[C@@H]1CC[C@]2(C(=O)NCc3ccoc3)CC[C@]3(C)[C@H](CC[C@@H]4[C@@]5(C)CC[C@H](OC(=O)CC(C)(C)C(=O)O)C(C)(C)[C@@H]5CC[C@]43C)[C@@H]12 [Compound 95] | < 100
C=C(C)[C@@H]1CC[C@]2(C(=O)NCCOc3ccc(OC)cc3)CC[C@]3(C)[C@H](CC[C@@H]4[C@@]5(C)CC[C@H](OC(=O)CC(C)(C)C(=O)O)C(C)(C)[C@@H]5CC[C@]43C)[C@@H]12 [Compound 97] | < 100
C=C(C)[C@@H]1CC[C@]2(C(=O)NCc3ccc(N(C)C)cc3)CC[C@]3(C)[C@H](CC[C@@H]4[C@@]5(C)CC[C@H](OC(=O)CC(C)(C)C(=O)O)C(C)(C)[C@@H]5CC[C@]43C)[C@@H]12 [Compound 99] | < 100
C=C(C)[C@@H]1CC[C@]2(C(=O)NCCc3ccc(C(=O)O)cc3)CC[C@]3(C)[C@H](CC[C@@H]4[C@@]5(C)CC[C@H](OC(=O)CC(C)(C)C(=O)O)C(C)(C)[C@@H]5CC[C@]43C)[C@@H]12 [Compound 100] | < 100
C=C(C)[C@@H]1CC[C@]2(C(=O)NCc3c(C)coc3C(F)(F)F)CC[C@]3(C)[C@H](CC[C@@H]4[C@@]5(C)CC[C@H](OC(=O)CC(C)(C)C(=O)O)C(C)(C)[C@@H]5CC[C@]43C)[C@@H]12 [Compound 101] | < 100
C=C(C)[C@@H]1CC[C@]2(C(=O)NCCCc3ccc(OC)c(OC)c3)CC[C@]3(C)[C@H](CC[C@@H]4[C@@]5(C)CC[C@H](OC(=O)CC(C)(C)C(=O)O)C(C)(C)[C@@H]5CC[C@]43C)[C@@H]12 [Compound 102] | < 100
C=C(C)[C@@H]1CC[C@]2(C(=O)NCc3cc(OC)c(OC)c(OC)c3)CC[C@]3(C)[C@H](CC[C@@H]4[C@@]5(C)CC[C@H](OC(=O)CC(C)(C)C(=O)O)C(C)(C)[C@@H]5CC[C@]43C)[C@@H]12 [Compound 103] | < 100
C=C(C)[C@@H]1CC[C@]2(C(=O)NCCCc3ccc(OC)cc3)CC[C@]3(C)[C@H](CC[C@@H]4[C@@]5(C)CC[C@H](OC(=O)CC(C)(C)C(=O)O)C(C)(C)[C@@H]5CC[C@]43C)[C@@H]12 [Compound 104] | < 100
C=C(C)[C@@H]1CC[C@]2(C(=O)NC(C)c3ccccn3)CC[C@]3(C)[C@H](CC[C@@H]4[C@@]5(C)CC[C@H](OC(=O)CC(C)(C)C(=O)O)C(C)(C)[C@@H]5CC[C@]43C)[C@@H]12 (stereo partly drawn) [Compound 105] | < 100
C=C(C)[C@@H]1CC[C@]2(C(=O)NCc3nc4ccccc4s3)CC[C@]3(C)[C@H](CC[C@@H]4[C@@]5(C)CC[C@H](OC(=O)CC(C)(C)C(=O)O)C(C)(C)[C@@H]5CC[C@]43C)[C@@H]12 [Compound 106] | < 100
C=C(C)[C@@H]1CC[C@]2(C(=O)NCc3cccc(C)n3)CC[C@]3(C)[C@H](CC[C@@H]4[C@@]5(C)CC[C@H](OC(=O)CC(C)(C)C(=O)O)C(C)(C)[C@@H]5CC[C@]43C)[C@@H]12 [Compound 108] | < 100
